Measurements from paper PMC12349913 (Biological & pharmaceutical bulletin, 2024).

Biological target: full-length Plk1 (Homo sapiens, UniProt P53350)
Assay: Fluorescence polarization
Conditions: FP assay, serially diluted full-length protein

full-length Plk1, sequence (P53350 whole entry): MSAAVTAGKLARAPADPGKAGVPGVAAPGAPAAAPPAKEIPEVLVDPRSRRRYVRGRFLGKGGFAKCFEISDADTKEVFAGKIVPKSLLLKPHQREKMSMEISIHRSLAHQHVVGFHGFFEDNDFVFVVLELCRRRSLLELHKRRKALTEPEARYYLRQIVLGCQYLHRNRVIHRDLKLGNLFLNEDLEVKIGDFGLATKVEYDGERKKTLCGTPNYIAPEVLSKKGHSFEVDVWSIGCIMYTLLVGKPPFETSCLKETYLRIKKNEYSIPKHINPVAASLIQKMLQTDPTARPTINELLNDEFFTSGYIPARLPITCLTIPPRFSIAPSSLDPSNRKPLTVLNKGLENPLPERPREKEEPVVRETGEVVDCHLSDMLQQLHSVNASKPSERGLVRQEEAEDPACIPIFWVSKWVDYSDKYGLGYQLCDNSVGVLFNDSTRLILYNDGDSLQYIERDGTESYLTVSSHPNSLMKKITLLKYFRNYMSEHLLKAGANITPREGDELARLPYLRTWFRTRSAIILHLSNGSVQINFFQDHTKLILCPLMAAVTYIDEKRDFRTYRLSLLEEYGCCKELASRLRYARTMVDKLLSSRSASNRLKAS

With “5-carboxyfluorescein (5CF)-GPMQSpTPLNG-NH2 [5CF-GPMQSpTPLNG-NH2]” the “FP signal response to full-length Plk1” value was “did not show significant FP signal enhancement”.
